Reference: US10501459B2, “Substituted imidazo[1,2-a]pyridines as bromodomain inhibitors” (NEOMED Institute, priority 2015, dated 2019)

What follows are molecules tested on human C-Myc gene transcription in MV-4-11 cells (assay: Transcription of human C-Myc in human leukemic MV-4-11 cells (QuantiGene 2.0)). Settings: Homo sapiens, MV4-11, 4 h, inhibition of C-Myc mRNA, 4 hours treatment.
Assay type: cell-based
Method: b) Transcription of Human C-Myc in Human Leukemic MV-4-11 Cells:
The effect of compounds on transcription of human C-Myc gene is monitored in human B-myelomonocytic leukemia cell line MV-4-11 (from American Type Culture Collection (ATCC), Manassas, Va., USA) using QuantiGene 2.0 assay kit (Affymetrix, Santa Clara, Calif., USA).
Typically, 8,000 MV-4-11 cells are plated in sterile 96-well plates (Costar #3598 from Fisher Scientific Canada, Ottawa, Ontario, Canada) in Iscove's medium supplemented with 10% fetal bovine serum, glutamine (2 mM), and penicillin (100 I.U.) and streptomycin (100 μg/mL) (all from Wisent Inc., St. Bruno, Quebec, Canada). Compounds are dissolved in DMSO at 30 mM. A series of 1:3 dilutions are first made in DMSO, and further […] dilutions are made in serum-containing cell culture media. The final concentration of DMSO is […] in cell culture media. After cells are treated with various concentrations of test compound for 4 hours, cells are lysed using Quantigene 2.0 sample processing kit (#QS0100). C-Myc mRNA is detected using a QuantiGene 2.0 assay kit (#QS0009) with gene-specific probe to human C-Myc (#SA-50182) following the manufacturer's recommendations. Luminescene signals are read on Flexstation II microplate reader (Molecular Devices, Sunnyvale, Calif., USA). Percentage of inhibition of C-Myc transcription is analyzed using EXCEL (2010 version).

In order of falling IC50:
1. Cc1cc(-c2ccc3ncc(C(=O)N4CCOCC4)n3c2)cn(C)c1=O [Compound 11, 1,3-dimethyl-5-(3-(morpholine-4-carbonyl)imidazo[1,2-a]pyridin-6-yl) pyridin-2(1H)-one]  2730 nM
2. Cc1cc(-c2ccc3ncc(C(=O)N4CCCCC4)n3c2)cn(C)c1=O [Compound 13, 1,3-dimethyl-5-(3-(piperidine-1-carbonyl)imidazo[1,2-a]pyridin-6-yl)pyridin-2(1H)-one]  2660 nM
3. CCNS(=O)(=O)c1cnc2ccc(-c3cc(C)c(=O)n(C)c3)cn12 [Compound 15, 6-(1,5-dimethyl-6-oxo-1,6-dihydropyridin-3-yl)-N-ethylimidazo[1,2-a] pyridine-3-sulfonamide]  2520 nM
4. CO[C@H]1CCN(S(=O)(=O)c2cnc3ccc(-c4cc(C)c(=O)n(C)c4)cn23)C1 [Compound 50, (S)-5-(3-((3-methoxypyrrolidin-1-yl)sulfonyl)imidazo[1,2-a]pyridin-6-yl)-1,3-dimethylpyridin-2(1H)-one]  2370 nM
5. Cc1cc(-c2ccc3ncc(C(=O)NC4CCCCC4)n3c2)cn(C)c1=O [Compound 12, N-cyclohexyl-6-(1,5-dimethyl-6-oxo-1,6-dihydropyridin-3-yl)imidazo[1,2-a] pyridine-3-carboxamide]  912 nM
6. Cc1cc(-c2ccc3ncc(S(=O)(=O)NC4CCOC4)n3c2)cn(C)c1=O (single isomer, unassigned) [Compound 52, 6-(1,5-dimethyl-6-oxo-1,6-dihydropyridin-3-yl)-N-(tetrahydrofuran-3-yl) imidazo[1,2-a]pyridine-3-sulfonamide]  891 nM
7. Cc1cc(-c2ccc3ncc(S(=O)(=O)NC4CCOCC4)n3c2)cn(C)c1=O [Compound 42, 6-(1,5-dimethyl-6-oxo-1,6-dihydropyridin-3-yl)-N-(tetrahydro-2H-pyran-4-yl)imidazo[1,2-a]pyridine-3-sulfonamide]  865 nM
8. Cc1cc(-c2ccc3ncc(S(=O)(=O)C4CCCC4)n3c2)cn(C)c1=O [Compound 49, 5-(3-(cyclopentylsulfonyl)imidazo[1,2-a]pyridin-6-yl)-1,3-dimethylpyridin-2(1H)-one]  851 nM
9. Cc1cc(-c2ccc3ncc(CN4CCOCC4)n3c2)cn(C)c1=O [Compound 21, 1,3-dimethyl-5-[3-(morpholinomethyl)imidazo[1,2-a]pyridin-6-yl]pyridin-2-one]  816 nM
10. Cc1cc(-c2ccc3ncc(S(=O)(=O)NC(C)C)n3c2)cn(C)c1=O [Compound 17, 6-(1,5-dimethyl-6-oxo-1,6-dihydropyridin-3-yl)-N-isopropylimidazo [1,2-a] pyridine-3-sulfonamide]  758 nM
11. Cc1cc(-c2ccc3ncc(S(=O)(=O)N(C)C4CCOC4)n3c2)cn(C)c1=O (single isomer, unassigned) [Compound 47, 6-(1,5-dimethyl-6-oxo-1,6-dihydropyridin-3-yl)-N-methyl-N-(tetrahydrofuran-3-yl)imidazo[1,2-a]pyridine-3-sulfonamide]  731 nM
12. Cc1cc(-c2ccc3ncc(S(=O)(=O)N4CCCCC4)n3c2)cn(C)c1=O [Compound 14, 1,3-dimethyl-5-(3-(piperidin-1-ylsulfonyl)imidazo[1,2-a]pyridin-6-yl)pyridin-2(1H)-one]  508 nM
13. Cc1cc(-c2ccc3ncc(CN4CCCCC4=O)n3c2)cn(C)c1=O [Compound 26, 1,3-dimethyl-5-[3-[(2-oxo-1-piperidyl)methyl]imidazo[1,2-a]pyridin-6-yl]pyridin-2-one]  492 nM
14. Cc1cc(-c2ccc3ncc(COCC(F)(F)F)n3c2)cn(C)c1=O [Compound 34, 1,3-dimethyl-5-[3-(2,2,2-trifluoroethoxymethyl)imidazo[1,2-a]pyridin-6-yl]pyridin-2-one]  234 nM
15. Cc1cc(-c2ccc3ncc(S(=O)(=O)N4CCC[C@@H]4C)n3c2)cn(C)c1=O [Compound 46, (S)-1,3-dimethyl-5-(3-((2-methylpyrrolidin-1-yl)sulfonyl)imidazo[1,2-a]pyridin-6-yl)pyridin-2(1H)-one]  178 nM
16. Cc1cc(-c2ccc3ncc(S(=O)(=O)N4CCCC4)n3c2)cn(C)c1=O [Compound 19, 1,3-dimethyl-5-(3-(pyrrolidin-1-ylsulfonyl)imidazo[1,2-a]pyridin-6-yl)pyridin-2(1H)-one]  170 nM
17. Cc1nc2ccc(-c3cc(C)c(=O)n(C)c3)cn2c1Cc1ccncc1 [Compound 56, 1,3-dimethyl-5-[2-methyl-3-(4-pyridylmethyl)imidazo[1,2-a]pyridin-6-yl] pyridin-2-one]  153 nM
18. Cc1nc2ccc(-c3cc(C)c(=O)n(C)c3)cn2c1Cc1ccccn1 [Compound 54, 1,3-dimethyl-5-[2-methyl-3-(2-pyridylmethyl)imidazo[1,2-a]pyridin-6-yl] pyridin-2-one]  151 nM
19. Cc1cc(-c2ccc3ncc(S(=O)(=O)NC4CCCCC4)n3c2)cn(C)c1=O [Compound 18, N-cyclohexyl-6-(1,5-dimethyl-6-oxo-1,6-dihydropyridin-3-yl)imidazo[1,2-a]pyridine-3-sulfonamide]  93.7 nM
20. COC(c1ccccc1)c1cnc2ccc(-c3cc(C)c(=O)n(C)c3)cn12 (stereo not shown) [Compound 7, 5-[3-[methoxy(phenyl)methyl]imidazo[1,2-a]pyridin-6-yl]-1,3-dimethyl-pyridin-2-one]  92.8 nM
21. Cc1nc2ccc(-c3cc(C)c(=O)n(C)c3)cn2c1Cc1cccnc1 [Compound 55, 1,3-dimethyl-5-[2-methyl-3-(3-pyridylmethyl)imidazo[1,2-a]pyridin-6-yl] pyridin-2-one]  84.5 nM
22. Cc1cc(-c2ccc3ncc(S(=O)(=O)NC4CCCC4)n3c2)cn(C)c1=O [Compound 16, N-cyclopentyl-6-(1,5-dimethyl-6-oxo-1,6-dihydropyridin-3-yl)imidazo[1,2-a]pyridine-3-sulfonamide]  81.3 nM
23. Cc1nc2ccc(-c3cc(C)c(=O)n(C)c3)cn2c1Cc1ccccc1 [Compound 24, 5-(3-benzyl-2-methyl-imidazo[1,2-a]pyridin-6-yl)-1,3-dimethyl-pyridin-2-one]  32.2 nM
24. Cc1cc(-c2ccc3ncc(Nc4ccccc4)n3c2)cn(C)c1=O [Compound 30, 5-(3-anilinoimidazo[1,2-a]pyridin-6-yl)-1,3-dimethyl-pyridin-2-one]  24.9 nM
25. Cc1cc(-c2ccc3ncc(NC4CCCC4)n3c2)cn(C)c1=O [Compound 22, 5-[3-(cyclopentylamino)imidazo[1,2-a]pyridin-6-yl]-1,3-dimethyl-pyridin-2-one]  9.8 nM

Same assay, conditions: inhibition of C-Myc mRNA, 4 hours treatment

In order of falling IC50:
1. Cc1cc(-c2ccc3ncc(S(=O)(=O)NC4CCOC4)n3c2)cn(C)c1=O (single isomer, unassigned) [Compound 53, 6-(1,5-dimethyl-6-oxo-1,6-dihydropyridin-3-yl)-N-(tetrahydrofuran-3-yl) imidazo[1,2-a]pyridine-3-sulfonamide]  898 nM
2. Cc1cc(-c2ccc3ncc(S(=O)(=O)N(C)C4CCOC4)n3c2)cn(C)c1=O (single isomer, unassigned) [Compound 48, 6-(1,5-dimethyl-6-oxo-1,6-dihydropyridin-3-yl)-N-methyl-N-(tetrahydrofuran-3-yl)imidazo[1,2-a]pyridine-3-sulfonamide]  537 nM
3. Cc1cc(-c2ccc3ncc(S(=O)(=O)NC4CCCOC4)n3c2)cn(C)c1=O (stereo not shown) [Compound 43, 6-(1,5-dimethyl-6-oxo-1,6-dihydropyridin-3-yl)-N-(tetrahydro-2H-pyran-3-yl)imidazo[1,2-a]pyridine-3-sulfonamide]  253 nM
